Results as given in US9636021B2, “Flavonoid compounds of low toxicity for biological imaging applications” (The University of Akron, priority 2014, dated 2017).

Tests used:
[1] = absorbance and fluorescence spectra in DMSO; type: physicochemical
Source text: The absorbance and fluorescence spectra of compounds 1-6 in dimethyl sulfoxide (DMSO) were investigated and the results are in Table 1.

[2] = biological target: bovine serum albumin (BSA) (Bos taurus, UniProt P02769); experiment: fluorescence turn-on with BSA in PBS buffer; type: binding
bovine serum albumin (BSA), sequence (P02769 25-607): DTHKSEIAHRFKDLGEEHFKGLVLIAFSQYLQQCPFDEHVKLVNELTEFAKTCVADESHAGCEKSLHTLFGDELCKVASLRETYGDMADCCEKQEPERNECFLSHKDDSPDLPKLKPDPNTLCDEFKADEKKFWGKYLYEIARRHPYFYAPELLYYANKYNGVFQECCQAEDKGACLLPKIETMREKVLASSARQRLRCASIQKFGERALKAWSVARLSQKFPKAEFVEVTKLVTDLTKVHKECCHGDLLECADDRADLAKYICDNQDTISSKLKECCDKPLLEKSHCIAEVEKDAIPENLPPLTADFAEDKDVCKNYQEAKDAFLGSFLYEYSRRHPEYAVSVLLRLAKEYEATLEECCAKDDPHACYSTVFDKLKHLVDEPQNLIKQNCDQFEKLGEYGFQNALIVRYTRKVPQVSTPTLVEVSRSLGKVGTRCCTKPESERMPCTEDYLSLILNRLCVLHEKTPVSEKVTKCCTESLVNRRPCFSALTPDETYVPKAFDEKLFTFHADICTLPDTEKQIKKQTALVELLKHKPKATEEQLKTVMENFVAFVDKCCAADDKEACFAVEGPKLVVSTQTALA
Method: In the aqueous buffer (0.5% DMSO, 10 mM of PBS, pH=7.4), the BSA binding-induced fluorescence turn-on was so large that it could be easily seen by naked eye. […] The intramolecular charge transfer along the D-A conjugated backbone plays a very important role in the environment-sensitivity of the flavone. All the evidence consistently pointed to the flavone dye entering the hydrophobic site of BSA.
Generally, the detection limit can be defined as the analyte concentration at which a 10% increase in fluorescence emission can be measured.
Therefore, the detection limits of compounds 1-6 were 2.6, 0.14, 0.59, 0.09, 14, and 3.4 μg/mL, respectively. For Off/On type fluorescent sensor, the Signal-to-Noise (S/N) ratio above 3:1 is considered reliable for visual evaluation. The visual recognizable detection limits of compounds 1-6 were calculated as 78, 4.2, 17.7, 2.7, 420, and 102 μg/mL, respectively. The reference range for serum albumin concentration in human blood plasma is approximately 35-50 mg/mL. Even in fish, the concentration of serum albumins can reach 0.5-5 mg/mL. The detection limits of the compounds were much lower than serum albumin concentration, indicating the capability for actual blood sample testing.

[3] = fluorescence quenching by water; type: physicochemical
Source text: Upon excitation via photon irradiation, the dipole moment increased dramatically because of the charge transfer from D-A structure in compound 1. An increase in the solvent polarity could relax the excited molecules more efficiently, thus decreasing the energy of the excited state of fluorophore and resulting in a red-shifted emission. […] The fluorescence of compound 1 was nearly 100% quenched by water due to intermolecular electron or proton transfer. Non-fluorescence in water raises the possibility of eliminating the washing process in the protein detection procedure, since the free dye molecules gives negligible background signal in water.

[4] = test system: yolk syncytial layer (YSL) of zebrafish embryos; experiment: fluorescence staining of zebrafish embryos and larvae; type: in vivo, zebrafish (Danio rerio)
Method: Zebrafish embryos at 16 hours post fertilization (hpf) were initially used to study the CDCO's stain ability. A developing zebrafish body is normally covered by chorion and enveloping layer (EVL), which prevent dye molecules permeating into the fish body. In this example, 0.2% DMSO with 10 μM CDCO was infused to the E3 medium to decrease the barrier function of the zebra fish chorion without damaging the fish embryos' structural integrity. […] Thus, it is believed that CDCO selectively stained the YSL region.
To investigate the location of CDCO labeling, zebra fish embryos at nine representative stages of early development were incubated with 10 μM CDCO for 30 minutes at 28.5° C., respectively (FIGS. 3-8). The YSL is initially generated by the collapse/fusion of marginal blastomeres with the yolk cell, and then a thin ring of YSL nuclei forms in front of blastoderm margin at high stage.
The YSL structure can persist on the edge of yolk cell until larval stages. […] This YSL-imaging method can selectively stain the YSL structure from its initial formation, to the dynamic epiboly, and finally to the disappearance of YSL, thus representing a promising tracking agent for zebrafish embryonic development studies.
Wild-type zebrafish embryos were collected and maintained as described in The Zebrafish Book by Monte Westerfield, which is incorporated herein by reference. Zebrafish were kept at 28.5° C. and maintained in E3 embryo medium (15 mM NaCl, 0.5 mM KCl, 1 mM MgSO4, 1 mM CaCl2, 0.15 mM KH2PO4, 0.05 mM Na2HPO4, 0.7 mM NaHCO3, 10^−5% methylene blue; pH 7.5).
For the example represented by FIGS. 1 and 2, 10 μL CDCO stock solution (5 mmol/L CDCO in DMSO) was added into 5 mL E3 medium, then 16 hpf zebra fish embryos were gently transferred to this medium (solution) and incubated at 28.5° C. for 30 min. The dyes which stick to the chorion of the embryos were washed away with E3 medium before imaging by fluorescence microscopy.
For the example represented by FIGS. 3-8, the zebra fish embryos at 2.5 hpf, 4.5 hpf, 6.5 hpf, 7.5 hpf, 8.5 hpf, 11.5 hpf and 16.5 hpf were separately handled following the same procedure.
For the example represented by FIG. 22, the staining time required was 1 hour, since the CDCO was more difficult to penetrate through the older fish skin. Before imaging, the zebrafish were treated with tricaine (anesthetic 0.03%).
All the zebrafish were imaged using fluorescent microscopy (Axio. Vert with X-Cite Series 120Q). The blue-CH filter: excitation 365 nm, beam splitter FT 395 nm, emission 445/50 nm. The green-CH filter: excitation 450-490 nm, beam splitter FT 510 nm, emission 515-565 nm. The red-CH filter: excitation 587/25 nm, beam splitter FT 605 nm, and emission 647/70 nm.)

[5] = biological target: T1, bovin serum albumin (BSA) (Bos taurus, UniProt P02769); experiment: interaction between CDCO and BSA (absorption, fluorescence, warfarin displacement); type: binding, bovine
T1 construct: purchased Sigma Aldrich (St. Louis, Mo.)
T1 sequence (P02769 25-607): as above
Source text: The bovin serum albumin (BSA) as the common protein model was used to investigate the interaction between CDCO and proteins. After addition of one equivalent of BSA, the absorption peak at 385 nm was shifted to 402 nm. With the excitation at 400 nm, the fluorescence intensity of CDCO was enhanced about 2-fold, which was accompanied with a large blue-shift (by about 60 nm) from 560 nm to 500 nm. […] However, when the sample was excited at 570 nm, a red/near-infrared fluorescence peak was detected at 700 nm. In order to determine the location of CDCO on BSA, the displacement of CDCO was carried out by addition of warfarin, which is known to strongly bind to the warfarin binding site in Domain II A of BSA. […] It is believed that the emission at 750 nm might be related to the complicated charge and energy transfer inside dye-BSA complex.

[6] = test system: yolk syncytial layer (YSL) of zebrafish embryos; experiment: fluorescence stability and leakage of CDCO in zebrafish embryos; type: in vivo, zebrafish (Danio rerio); settings: 5 hpf and 18 hpf embryos, 10 μM 30 min, washed, 1 hour in E3 medium
Method: Stability is one of the most important criteria for developing fluorescent imaging agents for living organisms, especially for tracking highly dynamic structures like the YSL.
(§1) The stable and biocompatible staining property of CDCO enables a long-term visualization method for tracking the development and migration of the YSL.
For the example represented by FIGS. 9-12, the 4.5 hpf and 17.5 hpf zebrafish embryos were firstly incubated in an E3 medium containing 10 μM CDCO and 0.2% DMSO for 0.5 h, then were washed with E3 medium, followed by incubating in the E3 medium for 1 hour.

[7] = test system: zebrafish vitellogenin; experiment: interaction between CDCO and zebrafish vitellogenin; type: binding
Method: ^1H NMR and ^13C NMR spectra were obtained using an AVANCE II apparatus from Bruker Corporation (Billerica, Mass.). UV-vis spectra were acquired on an 8453 diode-array spectrometer from Hewlett-Packard (Palo Alto, Calif.). Fluorescence spectra were measured by RF-5301 PC spectrometer from Shimadzu Corporation (Kyoto, Japan). Electrospray ionization (ESI) mass spectra were acquired with a Synapt HDMS quadrupole/time-of-flight (Q/ToF) mass spectrometer from Waters Corporation (Milford, Mass.). All the solvents for the fluorescence experiments were analytic grade, which were purchased from Fisher Scientific (Waltham, Mass.) and used without further purification. Bovine serum albumin was purchased from Sigma Aldrich (St. Louis, Mo.). Zebrafish vitellogenin standard was purchased from Cayman Europe Biosense Laboratories (No. V01008301). The fluorescence imaging was obtained by X-Cite™ Series 120Q fluorescence microscope from Lumen Dynamics. For the blue channel filter: excitation 365 nm, beam splitter FT 395 nm, emission 445/50 nm. For the green channel filter: excitation 450-490 nm, beam splitter FT 510 nm, emission 515-565 nm. For the red channel filter: excitation 587/25 nm, beam splitter FT 605 nm, emission 647/70 nm.
Zebrafish embryos at 16 hours post fertilization (hpf) were initially used to study the CDCO's stain ability. […]

[8] = test system: zebrafish embryos; experiment: toxicity to labeled zebrafish embryos; type: in vivo, zebrafish (Danio rerio); settings: morphology and size vs non-labeled control embryos
Source text: as §1

[9] = with BSA 1.0 mg/ml, 10 μM dye, 10 mM PBS, 0.5% DMSO, pH 7.4
[10] = without BSA, 10 μM dye, 10 mM PBS, 0.5% DMSO, pH 7.4
[11] = embryos at early development stages, 10 μM, 30 minutes, 28.5° C.

Compound: CN(C)c1ccc(-c2oc3ccccc3c(=O)c2O)cc1 [compound 1, 2-(4-(dimethylamino)phenyl)-3-hydroxy-4H-chromen-4-one]
- Φ [1]: 10.0%
- λabs [1]: 403 nm
- detection limit (10% increase in fluorescence emission) ([2]; BSA): 2.6 µg/mL
- visual recognizable detection limit (S/N above 3:1) ([2]; BSA): 78 µg/mL
- F(+)/F(−) fluorescence intensity with BSA / without BSA ([2]; BSA 1.0 mg/ml, 10 μM dye, 10 mM PBS, 0.5% DMSO, pH 7.4): 38
- λabs(+) [2, 9]: 416 nm
- λem(+) [2, 9]: 556 nm
- λabs(−) [2, 10]: 403 nm
- λem(−) [2, 10]: 560 nm
- fluorescence quenched by water [3]: ~100%

Compound: CN(C)c1ccc(-c2oc3ccccc3c(=O)c2OCc2ccc(CCl)cc2)cc1 [CDCO, 3-(4-(chloromethyl)benzyloxy)-2-(4-(dimethylamino)phenyl)-4H-chromen-4-one]
- staining of 16 hpf zebrafish embryos ([4]; 10 μM, 0.2% DMSO in E3 medium, 30 minutes): stained specifically the yolk-related region in the embryos
- localisation of dye during embryo development [4, 11]: consistently confined to the YSL without significant leakage to the blastoderm
- staining of the yolk cell [4, 11]: barely stained
- fluorescent labeling of 36 hpf embryos ([4]; incubated 1 hour): strong red fluorescence as well as blue and green emission in the yolk region
- fluorescent labeling of 7 days old larval zebrafish ([4]; incubated 1 hour, YSL completely absorbed): almost no red fluorescence was observed
- effect of warfarin on red fluorescence ([5]; 5-fold excess of warfarin): did not completely quench the red fluorescence
- emission after warfarin displacement ([5]; 5-fold excess of warfarin): 750 nm
- absorption peak ([5]; after addition of one equivalent of BSA): 402 nm
- absorption peak ([5]; before addition of BSA): 385 nm
- fluorescence emission ([5]; excitation 400 nm, before BSA): 560 nm
- blue-shift in fluorescence ([5]; excitation 400 nm, on addition of BSA): about 60 nm
- fluorescence emission ([5]; excitation 400 nm, with one equivalent of BSA): 500 nm
- fluorescence intensity enhancement ([5]; one equivalent of BSA, excitation at 400 nm): about 2 fold
- red/near-infrared fluorescence peak ([5]; with BSA, excited at 570 nm): 700 nm
- fluorescence leakage after washing [6]: no significant fluorescence leakage to blastoderm or somite
- red fluorescence with zebrafish vitellogenin [7]: almost no red fluorescence
- toxicity to labeled embryos [8]: almost no apparent toxicity
